{"source": "patent US20120021434A1", "about": "“METHOD FOR TREATING B CELL REGULATED AUTOIMMUNE DISORDERS” (Synta Pharmaceuticals Corp., priority 2005, published 2012)", "format_in_all_cases": "cell-based", "key": {"p50": {"system": "p50", "test": "Western blot of THP-1 nuclear extracts: p50", "details": "IFN-γ plus LPS or IFN-γ plus SAC, remained above non-stimulated levels", "experimental": "The THP-1 cell, Jurkat cell and RAW264.7 cell line were obtained from American Type Culture Collection (Manassas, Va.). The THP-1 Jurkat cells were cultured in RPMI 1640 (ATCC, Manassas, Va.), supplemented with 10% FCS (ATCC, Manassas, Va.), and 1% penicillin/Streptomycin (Gibco-BRL, New York, N.Y.). The RAW264.7 cells were cultured in DMEM (ATCC, Manassas, Va.) supplemented with 10% FCS (ATCC, Manassas, Va.), and 1% penicillin/Streptomycin (Gibco-BRL, New York, N.Y.). The cells were stimulated with human or murine recombinant IFNγ (100 ng/ml) for 10 h followed by LPS (1 μg/ml) or SAC (0.025%) CpG ([…]) in the presence or absence of Compound 50 at different concentrations for an additional incubation.\nTHP-1 cells were suspended in 20 volumes of buffer A containing 10 mM KCl, 10 mM HEPES (pH 7.9), 1 mM MgCl2, 1 mM dithiothreitol (DTT), 0.1% Nonidet p40 (NP-40), and 0.5 mM phenylmethylsulfonyl fluoride (PMSF) and homogenized and centrifuged at 10,000 rpm at 4C afor 5 min. […]\nOf the transcription factors that have been analyzed, two factors, ICSBP and c-Rel, seem to be affected by Compound 4/Compound 50 treatment. […]"}, "Rel-B": {"system": "Rel-B", "test": "Rel-B nuclear translocation in IFNγ+LPS-stimulated THP1 cells (immunoblot)", "details": "100 nM, 6 h", "experimental": "RelB and p52 are two members of Rel family, which are preferentially complexed with each other. To determine the effect of Compound 50 on p52 and Rel-B nuclear translocation, THP1 cells were stimulated with IFNγ+LPS in either the presence or absence of 100 nM Compound 50 and the distribution of p52 and Rel-B was determined by immunoblotting of nuclear at 6 h post-treatment."}, "IKKβ": {"system": "IKKβ", "test": "Phosphorylation of IKKβ in IFNγ/LPS-stimulated THP-1 cells (immunoblot)", "details": "THP-1 whole cell extracts, IFNγ/LPS 5 min to 1 hr, 500 nM", "experimental": "The whole cell extracts were prepared using Cell Lysis Buffer (Cell Signaling, Beverly, Mass., USA) according to the manufacture's instruction.\nThe phosphorylation of IKK is an early step in NF-κB activation. To determine whether Compound 50 inhibits the activation of the IKK complex, the level of phosphorylated IKKβ was investigated in drug-treated, LPS-stimulated cells. Whole cell extracts were prepared from THP-1 cells that had been stimulated with IFNγ/LPS for 5 min, 15 min 30 min and 1 hr in the either the absence or presence of 500 nM Compound 50. Phosphorylated IKKβ was determined by immunoblot analysis using an anti-phospho IKKβ antibody. […] Compound 50 treatment had no effect on the induction of phosphorylated IKKβ."}, "IL-2": {"system": "IL-2", "test": "Induction of IL-2 in PMA+ionomycin stimulated Jurkat T cells", "details": "previously shown"}}}
{"smiles": "Cc1cccc(/C=N/Nc2cc(N3CCOCC3)nc(OCCc3ccccn3)n2)c1", "note": "[Compound 50, N-(3-Methyl-benzylidene)-N′-[6-morpholin-4-yl-2-(2-pyridin-2-yl-ethoxy)-pyrimidin-4-yl]-hydrazine]", "values": [{"measurement": "nuclear p50 levels", "setting": "p50", "value": "decreased slightly"}, {"measurement": "nuclear Rel-B", "setting": "Rel-B", "value": "slightly increased"}, {"measurement": "induction of phosphorylated IKKβ", "setting": "IKKβ", "value": "no effect"}, {"measurement": "induction of the c-Rel dependent cytokine IL-2", "setting": "IL-2", "value": "impairs"}]}
